Measured values reported in patent US20240381872A1, “SUBSTITUTED 2,3-DIHYDRO[1,3]THIAZOLO[4,5-B]PYRIDINES, SALTS THEREOF AND THEIR USE AS HERBICIDALLY ACTIVE SUBSTANCES” (BAYER AKTIENGESELLSCHAFT, priority 2021, published 2024).

Legend:
Format in all cases: in vivo
[1] = system: Alopecurus myosuroides (ALOMY); assay: Herbicidal pre-emergence action, section A (Table A2); conditions: application rate 1280 g/ha; visual grading after ca. 3 weeks vs untreated controls
Text: (§1) Seeds of mono- and dicotyledonous weed plants were sown in plastic pots (double sowings with one species of mono- and one species of dicotyledonous weed plants per pot), in sandy loam, and covered with soil. The compounds according to the invention, formulated in the form of wettable powders (WP) or as emulsifiable concentrates (EC), were applied to the surface of the covering soil as aqueous suspension or emulsion, with the addition of 0.5% of an additive, at an application rate of 600 l of water per hectare (converted). Following treatment, the pots were placed in a greenhouse and kept under optimum growth conditions for the test plants. The visual grading of the damage to the test plants was carried out after ca. 3 weeks in comparison to untreated controls (herbicidal effect in percent (%): 100% effect=plants have died off, 0% effect=as control plants).

[2] = system: Abutilon theophrasti (ABUTH); assay: Herbicidal post-emergence action, section B (Table B1); conditions: application rate 1280 g/ha, rated visually after about 3 weeks
Description: (§2) Seeds of mono- and dicotyledonous weed plants were placed in plastic pots in sandy loam soil (doubly sown with in each case one species of mono- or dicotyledonous weed plants per pot), covered with soil and cultivated in a greenhouse under controlled growth conditions. 2 to 3 weeks after sowing, the test plants were treated at the one-leaf stage. The compounds of the invention, formulated in the form of wettable powders (WP) or as emulsion concentrates (EC), were applied onto the green parts of the plants as aqueous suspension or emulsion with addition of 0.5% additive at a water application rate of 600 liters per hectare (converted). After the test plants had been kept in the greenhouse under optimum growth conditions for about 3 weeks, the activity of the preparations was rated visually in comparison to untreated controls. For example, 100% activity=the plants have died, 0% activity=like control plants.

[3] = system: Echinochloa crus-galli (ECHCG); assay: Herbicidal pre-emergence action, section A (Table A3); conditions: visual grading after ca. 3 weeks vs untreated controls
How it was run: (§3)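 Read-out is visual herbicidal effect in percent (100% = plants died, 0% = as control), graded ca. 3 weeks after treatment. Test compounds as WP or EC were applied to covering soil over sown seeds with 0.5% additive, 600 l water per hectare; greenhouse growth.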

Poa annua (POAAN) [4] = assay: Herbicidal post-emergence action, section B (Table B7); conditions: application rate 1280 g/ha; visual rating about 3 weeks after treatment vs untreated controls
Description: as §2

[5] = system: Digitaria sanguinalis (DIGSA); assay: Herbicidal pre-emergence action, section A (Table A12); conditions: application rate 1280 g/ha
How it was run: as §3

Setaria viridis (SETVI) [6] = assay: Herbicidal pre-emergence action, section A (Table A8); conditions: application rate 1280 g/ha
How it was run: as §3

[7] = system: Matricaria inodora (MATIN); assay: Herbicidal pre-emergence action, section A (Table A6); conditions: application rate 1280 g/ha; visual grading after ca. 3 weeks vs untreated controls
How it was run: as §3

Veronica persica (VERPE) [8] = assay: Herbicidal post-emergence action, section B (Table B10); conditions: application rate 320 g/ha; visual rating about 3 weeks after treatment vs untreated controls
How it was run: (§4)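 In this greenhouse assay, compounds in WP or EC form were applied post-emergence with 0.5% additive at a water rate of 600 liters per hectare. Treatment took place at the one-leaf stage, and injury was rated visually about 3 weeks later against untreated plants.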

Stellaria media (STEME) [9] = assay: Herbicidal post-emergence action, section B (Table B9); conditions: application rate 1280 g/ha; visual rating about 3 weeks after treatment vs untreated controls
How it was run: as §4

[10] = system: Amaranthus retroflexus (AMARE); assay: Herbicidal post-emergence action, section B (Table B11); conditions: application rate 1280 g/ha; visual rating about 3 weeks after treatment vs untreated controls
How it was run: as §4

[11] = system: Digitaria sanguinalis (DIGSA); assay: Herbicidal post-emergence action, section B (Table B12); conditions: application rate 1280 g/ha; visual rating about 3 weeks after treatment vs untreated controls
Description: as §2

Kochia scoparia (KCHSC) [12] = assay: Herbicidal pre-emergence action, section A (Table A4); conditions: visual grading after ca. 3 weeks vs untreated controls
How it was run: as §3

Kochia scoparia (KCHSC) [13] = assay: Herbicidal post-emergence action, section B (Table B4); conditions: application rate 320 g/ha; visual rating about 3 weeks after treatment vs untreated controls
How it was run: as §4

Veronica persica (VERPE) [14] = assay: Herbicidal pre-emergence action, section A (Table A10); conditions: application rate 1280 g/ha
How it was run: as §3

Stellaria media (STEME) [15] = assay: Herbicidal pre-emergence action, section A (Table A9); conditions: application rate 320 g/ha
How it was run: as §3

Setaria viridis (SETVI) [16] = assay: Herbicidal post-emergence action, section B (Table B8); conditions: application rate 1280 g/ha; visual rating about 3 weeks after treatment vs untreated controls
Description: as §2

Lolium rigidum (LOLRI) = assay: Herbicidal pre-emergence action, section A (Table A5); conditions: application rate 320 g/ha; visual grading after ca. 3 weeks vs untreated controls
How it was run: as §3

[17] = system: Amaranthus retroflexus (AMARE); assay: Herbicidal pre-emergence action, section A (Table A11)
How it was run: as §3

Poa annua (POAAN) [18] = assay: Herbicidal pre-emergence action, section A (Table A7); conditions: visual grading after ca. 3 weeks vs untreated controls
How it was run: as §3

[19] = system: Abutilon theophrasti (ABUTH); assay: Herbicidal pre-emergence action, section A (Table A1); conditions: application rate 1280 g/ha; visual grading after ca. 3 weeks vs untreated controls
Text: as §1

Glycine max (GLXMA) [20] = assay: Post-emergence effects on crop plants, section F (Table F4); conditions: Glycine max, 504 h, application rate 80 g/ha, read-out: post-emergence activity against GLXMA in %
Text: (§5) Seeds of mono- and dicotyledonous weed plants and crop plants were sown, in plastic or organic planting pots, in sandy loam, covered with soil and grown in a greenhouse under controlled growth conditions. 2 to 3 weeks after sowing, the test plants were sprayed in the single-leaf stage. The compounds according to the invention, formulated in form of wettable powders (WP) or as emulsifiable concentrates (EC), were sprayed onto the green plant parts as aqueous suspension or emulsion, with the addition of 0.5% of an additive, at an application rate of 600 l of water/ha (converted). The test plants were placed in the greenhouse for ca. 3 weeks under optimum growth conditions, and then the effect of the preparations was assessed visually in comparison with untreated controls (herbicidal effect in percent (%): 100% effect=plants have died off, 0% effect=as control plants). Tables F1 to F4 below show the effects of selected compounds of the general formula (I) according to Table 1 on various crop plants and an application rate corresponding to 320 g/ha or below obtained by the experimental procedure mentioned above.

[21] = system: Triticum aestivum (TRZAS); assay: Post-emergence effects on crop plants, section F (Table F2); conditions: Triticum aestivum, 504 h, application rate 320 g/ha, read-out: post-emergence activity against TRZAS in %
Text: as §5

Glycine max (GLXMA) [22] = assay: Pre-emergence effects on crop plants, section D (Table D4); conditions: application rate 80 g/ha; visual grading after ca. 3 weeks
Text: (§6) Seeds of mono- and dicotyledonous weed plants and crop plants were sown, in plastic or organic planting pots, in sandy loam and covered with soil. The compounds according to the invention, formulated in the form of wettable powders (WP) or as emulsifiable concentrates (EC), were applied to the surface of the covering soil as aqueous suspension or emulsion, with the addition of 0.5% of an additive, at an application rate of 600 l of water/ha (converted).
(§7) Following treatment, the pots were placed in a greenhouse and kept under optimum growth conditions for the test plants. The visual grading of the damage to the test plants was carried out after ca. 3 weeks in comparison to untreated controls (herbicidal effect in percent (%): 100% effect=plants have died off, 0% effect=as control plants).
(§8) Tables D1 to D5 below show the effects of various compounds of the general formula (I) according to Table 1 on various crop plants and an application rate corresponding to 320 g/ha or below obtained by the experimental procedure mentioned above in Biological Examples, Section C.

[23] = system: Triticum aestivum (TRZAS); assay: Pre-emergence effects on crop plants, section D (Table D2); conditions: application rate 80 g/ha; visual grading after ca. 3 weeks
Text: as §6, §7, §8

[24] = system: Amaranthus retroflexus (AMARE); assay: Herbicidal pre-emergence action, section C (Table C11); conditions: Amaranthus retroflexus, pre-emergence, 504 h; application rate 320 g/ha; visual grading after ca. 3 weeks; read-out: pre-emergence activity against AMARE in %
Text: Seeds of mono- and dicotyledonous weed plants and crop plants were sown, in plastic or organic planting pots, in sandy loam and covered with soil. The compounds according to the invention, formulated in the form of wettable powders (WP) or as emulsifiable concentrates (EC), were applied to the surface of the covering soil as aqueous suspension or emulsion, with the addition of 0.5% of an additive, at an application rate of 600 l of water/ha (converted). Following treatment, the pots were placed in a greenhouse and kept under optimum growth conditions for the test plants. The visual grading of the damage to the test plants was carried out after ca. 3 weeks in comparison to untreated controls (herbicidal effect in percent (%): 100% effect=plants have died off, 0% effect=as control plants).

Zea mays (ZEAMX) = assay: Post-emergence effects on crop plants, section F (Table F1); conditions: Zea mays, 504 h, application rate 320 g/ha, read-out: post-emergence activity against ZEAMX in %
Text: as §5

With Cc1ccccc1-c1nc2c(cc1Br)SCN2B1NB(N)N1 [Example I-056] the “pre-emergence activity against ALOMY in %” value [1] was 90%, the “post-emergence activity against ABUTH in %” value [2] was 90% and the “pre-emergence activity against ECHCG in %” value ([3]; application rate 1280 g/ha) was 100%. For the same compound, the “post-emergence activity against POAAN in %” value (Poa annua (POAAN) [4]) was 90%, the “pre-emergence activity against DIGSA in %” value [5] was 100% and the “pre-emergence activity against SETVI in %” value (Setaria viridis (SETVI) [6]) was 100%. For the same compound, the “pre-emergence activity against MATIN in %” value [7] was 90%, the “post-emergence activity against VERPE in %” value (Veronica persica (VERPE) [8]) was 90% and the “post-emergence activity against STEME in %” value (Stellaria media (STEME) [9]) was 90%. The “post-emergence activity against AMARE in %” value [10] was 90%, the “post-emergence activity against DIGSA in %” value [11] was 90% and the “pre-emergence activity against KCHSC in %” value (Kochia scoparia (KCHSC) [12]; application rate 1280 g/ha) was 100%. For the same compound, the “post-emergence activity against KCHSC in %” value (Kochia scoparia (KCHSC) [13]) was 90%, the “pre-emergence activity against VERPE in %” value (Veronica persica (VERPE) [14]) was 90% and the “pre-emergence activity against STEME in %” value (Stellaria media (STEME) [15]) was 90%. The “post-emergence activity against SETVI in %” value (Setaria viridis (SETVI) [16]) was 90%, the “pre-emergence activity against LOLRI in %” value (Lolium rigidum (LOLRI)) was 100% and the “pre-emergence activity against AMARE in %” value ([17]; application rate 320 g/ha) was 90%. For the same compound, the “pre-emergence activity against POAAN in %” value (Poa annua (POAAN) [18]; application rate 1280 g/ha) was 100%.

For Cc1cc2c(nc1-c1cccc(C)c1C)N(C(=O)C1(C)CC(Cl)=NO1)CS2 (stereo not drawn) [Example I-138], the “post-emergence activity against ABUTH in %” value [2] was 90%, the “pre-emergence activity against ECHCG in %” value ([3]; application rate 320 g/ha) was 90% and the “post-emergence activity against POAAN in %” value (Poa annua (POAAN) [4]) was 90%. The “pre-emergence activity against DIGSA in %” value [5] was 90%, the “pre-emergence activity against SETVI in %” value (Setaria viridis (SETVI) [6]) was 100% and the “pre-emergence activity against MATIN in %” value [7] was 90%. For the same compound, the “post-emergence activity against STEME in %” value (Stellaria media (STEME) [9]) was 90%, the “post-emergence activity against AMARE in %” value [10] was 100% and the “pre-emergence activity against KCHSC in %” value (Kochia scoparia (KCHSC) [12]; application rate 320 g/ha) was 90%. The “post-emergence activity against KCHSC in %” value (Kochia scoparia (KCHSC) [13]) was 90%, the “pre-emergence activity against STEME in %” value (Stellaria media (STEME) [15]) was 90% and the “pre-emergence activity against ABUTH in %” value [19] was 90%. The “pre-emergence activity against AMARE in %” value ([17]; application rate 1280 g/ha) was 90% and the “pre-emergence activity against POAAN in %” value (Poa annua (POAAN) [18]; application rate 320 g/ha) was 100%.

Cc1cc2c(nc1-c1cccc(F)c1F)N(S(C)(=O)=O)CS2(=O)=O [Example I-151, 5-(2,3-difluorophenyl)-3-(methylsulfonyl)-6-methyl-2,3-dihydro[1,3]thiazolo[4,5-b]pyridine 1,1-dioxide] was tested, and the percent crop plant damage at 80 g/ha (Glycine max (GLXMA) [20]) was 0%, the percent crop plant damage (wheat, post-emergence) at 320 g/ha [21] was 0% and the “pre-emergence activity against GLXMA in % (crop plant damage)” value (Glycine max (GLXMA) [22]) was 0%. The “pre-emergence activity against TRZAS in % (crop plant damage)” value [23] was 0%, the pest or weed control at 320 g/ha [24] was 100% and the percent crop plant damage (phytotoxicity) on Zea mays, post-emergence at 320 g/ha (Zea mays (ZEAMX)) was 0%.
